The record followed here is patent US20240116892A1, “HETEROCYCLIC AMIDE AND UREA COMPOUNDS AS JAK2 INHIBITORS” (Ajax Therapeutics, Inc., priority 2022, published 2024).

The experiment addresses JAK2 (JH1 domain-catalytic, Y1007F, Y1008F) kinase (Homo sapiens (Human), UniProt O60674, Y1007F/Y1008F). Kind of experiment: JAK2 JH1 Domain Binding Assay. As to conditions: qPCR readout. An outline of the steps: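 Competitive binding format: test compound, DNA-tagged JAK2 JH1 (Y1007F/Y1008F; HEK293-expressed NFkB fusion) and ligand-coated magnetic beads incubated 1 h at room temperature. Kinase retained on beads released with 0.5 μmol/L non-biotinylated ligand, then measured by qPCR.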
Background: In qPCR the cycle at which signal appears reflects the starting amount.

Chain of JAK2 (JH1 domain-catalytic, Y1007F, Y1008F) kinase (O60674 849-1124 Y1007F/Y1008F): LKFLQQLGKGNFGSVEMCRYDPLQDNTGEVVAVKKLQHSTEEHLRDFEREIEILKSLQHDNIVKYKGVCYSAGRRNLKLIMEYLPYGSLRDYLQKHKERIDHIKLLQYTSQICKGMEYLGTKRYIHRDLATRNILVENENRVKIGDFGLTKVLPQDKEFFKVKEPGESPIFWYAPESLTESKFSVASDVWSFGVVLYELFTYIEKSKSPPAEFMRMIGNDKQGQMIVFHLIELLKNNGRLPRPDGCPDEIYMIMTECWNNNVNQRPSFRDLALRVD

`CN(C(=O)Nc1cc(C(F)(F)F)cn(C)c1=O)[C@@H]1CCN(c2cnc3[nH]nc(OC4COC4)c3c2)C[C@@H]1F` [Example I-101-a, 1-((3S,4R)-3-fluoro-1-(3-(oxetan-3-yloxy)-1H-pyrazolo[3,4-b]pyridin-5-yl)piperidin-4-yl)-1-methyl-3-(1-methyl-2-oxo-5-(trifluoromethyl)-1,2-dihydropyridin-3-yl)urea]: the Kd (in general, the equilibrium constant for the complex coming apart) was in the range of 1 to 5 µM.
`CNc1cn2ncc(N3CCC(N(C)C(=O)Nc4cc(C(F)(F)F)cn(C)c4=O)CC3)c2cn1` [Example I-92, 1-methyl-3-(1-methyl-2-oxo-5-(trifluoromethyl)-1,2-dihydropyridin-3-yl)-1-(1-(6-(methylamino)pyrazolo[1,5-a]pyrazin-3-yl)piperidin-4-yl)urea]: the Kd fell in the range of 0.01 to 0.05 µM.
Regarding `CN(C(=O)Nc1cc(C(F)(F)F)cn(C)c1=O)C1CC2(C1)CN(c1cnc3[nH]ncc3c1)C2` [Example I-57, 1-(2-(1H-pyrazolo[3,4-b]pyridin-5-yl)-2-azaspiro[3.3]heptan-6-yl)-1-methyl-3-(1-methyl-2-oxo-5-(trifluoromethyl)-1,2-dihydropyridin-3-yl)urea], the Kd is under 0.01 µM.
To `[2H]C1([2H])C[C@@H](N(C)C(=O)Nc2cc(C(F)(F)F)cn(C)c2=O)[C@H](OC)C([2H])([2H])N1c1cnc2[nH]ncc2c1` [Example I-153-a, 1-((3R,4R)-3-methoxy-1-(1H-pyrazolo[3,4-b]pyridin-5-yl)piperidin-4-yl-2,2,6,6-d4)-1-methyl-3-(1-methyl-2-oxo-5-(trifluoromethyl)-1,2-dihydropyridin-3-yl)urea] belongs under 0.01 µM; to `COc1c[nH]c2ncc(N3CC[C@@H](N(C)C(=O)Nc4cc(C(F)(F)F)cn(C)c4=O)[C@H](F)C3)nc12` [Example I-150, 1-((3R,4R)-3-fluoro-1-(7-methoxy-5H-pyrrolo[2,3-b]pyrazin-2-yl)piperidin-4-yl)-1-methyl-3-(1-methyl-2-oxo-5-(trifluoromethyl)-1,2-dihydropyridin-3-yl)urea], under 0.01 µM.
To “1-(1-(3-((1R,2R)-2-hydroxycyclobutoxy)-1H-pyrazolo[3,4-b]pyridin-5-yl)piperidin-4-yl)-1-methyl-3-(1-methyl-2-oxo-5-(trifluoromethyl)-1,2-dihydropyridin-3-yl)urea and 1-(1-(3-((1S,2S)-2-hydroxycyclobutoxy)-1H-pyrazolo[3,4-b]pyridin-5-yl)piperidin-4-yl)-1-methyl-3-(1-methyl-2-oxo-5-(trifluoromethyl)-1,2-dihydropyridin-3-yl)urea [Example I-184-a]” belongs 0.05 to 1 µM; to `C[C@@H]1CN(c2cnc3[nH]ccc3n2)CC[C@@H]1N(C)C(=O)Nc1cc(C(F)(F)F)cn(C)c1=O` [Example I-58-a, 1-methyl-1-((3R,4S)-3-methyl-1-(5H-pyrrolo[2,3-b]pyrazin-2-yl)piperidin-4-yl)-3-(1-methyl-2-oxo-5-(trifluoromethyl)-1,2-dihydropyridin-3-yl)urea], under 0.01 µM; to `CN(C(=O)Nc1cc(C(F)(F)F)n([C@H]2CCOC2)n1)C1CCN(c2cnc3[nH]ncc3c2)CC1` [Example I-181, (S)-1-(1-(1H-pyrazolo[3,4-b]pyridin-5-yl)piperidin-4-yl)-1-methyl-3-(1-(tetrahydrofuran-3-yl)-5-(trifluoromethyl)-1H-pyrazol-3-yl)urea], under 0.01 µM.
To `COc1n[nH]c2ncc(N3CC[C@H](N(C)C(=O)Nc4cc(C(F)(F)F)cn(C)c4=O)[C@@H](F)C3)cc12` [Example I-84-a, 1-((3S,4S)-3-fluoro-1-(3-methoxy-1H-pyrazolo[3,4-b]pyridin-5-yl)piperidin-4-yl)-1-methyl-3-(1-methyl-2-oxo-5-(trifluoromethyl)-1,2-dihydropyridin-3-yl)urea] belongs under 0.01 µM.
Molecule `CN(C(=O)Nc1cc(C(F)(F)F)cn(C)c1=O)[C@H]1CCN(c2cnc3[nH]nc(OC4COC4)c3c2)C[C@H]1F` [Example I-101-b, 1-((3R,4S)-3-fluoro-1-(3-(oxetan-3-yloxy)-1H-pyrazolo[3,4-b]pyridin-5-yl)piperidin-4-yl)-1-methyl-3-(1-methyl-2-oxo-5-(trifluoromethyl)-1,2-dihydropyridin-3-yl)urea] displayed a Kd of 1 to 5 µM.
Consider `CC(=O)Nc1cnc(C2=CC[C@@H](N(C)C(=O)Nc3cc(C(F)(F)F)cn(C)c3=O)CC2)cn1` [Example I-140-a, (S)—N-(5-(4-(1-methyl-3-(1-methyl-2-oxo-5-(trifluoromethyl)-1,2-dihydropyridin-3-yl)ureido)cyclohex-1-en-1-yl)pyrazin-2-yl)acetamide], for which the Kd was under 0.01 µM.
Turning to `CC(=O)Nc1cnc(N2CCC(N(C)C(=O)Nc3cc(C(F)(F)F)cn(C)c3=O)CC2)cn1` [Example I-14, N-(5-(4-(1-methyl-3-(1-methyl-2-oxo-5-(trifluoromethyl)-1,2-dihydropyridin-3-yl)ureido)piperidin-1-yl)pyrazin-2-yl)acetamide], the Kd was under 0.01 µM.
To `CN(C(=O)Nc1cc(C(F)(F)F)cn(C)c1=O)C1CCN(c2cnc3[nH]ccc3n2)CC1(C)C` (single isomer, unassigned) [Example I-49-a, (R)- or (S)-1-(3,3-dimethyl-1-(5H-pyrrolo[2,3-b]pyrazin-2-yl)piperidin-4-yl)-1-methyl-3-(1-methyl-2-oxo-5-(trifluoromethyl)-1,2-dihydropyridin-3-yl)urea] belongs under 0.01 µM; to `CN(C(=O)Nc1cc(C(F)(F)F)cn(C)c1=O)[C@H]1CCN(c2cnc3[nH]nc(OC[C@H]4COCCO4)c3c2)C[C@H]1F` [Example I-102-b, 1-((3R,4S)-1-(3-(((R)-1,4-dioxan-2-yl)methoxy)-1H-pyrazolo[3,4-b]pyridin-5-yl)-3-fluoropiperidin-4-yl)-1-methyl-3-(1-methyl-2-oxo-5-(trifluoromethyl)-1,2-dihydropyridin-3-yl)urea], under 0.01 µM; to `C[C@@H]1C[C@H](N(C)C(=O)Nc2cc(C(F)(F)F)cn(C)c2=O)CCN1c1cnc2[nH]ncc2c1` [Example I-105-b, 1-methyl-1-((2R,4R)-2-methyl-1-(1H-pyrazolo[3,4-b]pyridin-5-yl)piperidin-4-yl)-3-(1-methyl-2-oxo-5-(trifluoromethyl)-1,2-dihydropyridin-3-yl)urea], under 0.01 µM.
Under `CNc1c[nH]c2ncc([C@H]3CC[C@H](N(C)C(=O)Nc4cc(C(F)(F)F)cn(C)c4=O)CC3)nc12` [Example I-144, trans-1-methyl-3-(1-methyl-2-oxo-5-(trifluoromethyl)-1,2-dihydropyridin-3-yl)-1-(4-(7-(methylamino)-5H-pyrrolo[2,3-b]pyrazin-2-yl)cyclohexyl)urea] stands under 0.01 µM; under `CN(C(=O)Nc1cc(C(F)(F)F)cn(C)c1=O)[C@H]1CCN(c2cnc3[nH]n(C)c(=O)c3c2)C[C@H]1F` [Example I-89-b, 1-((3R,4S)-3-fluoro-1-(2-methyl-3-oxo-2,3-dihydro-1H-pyrazolo[3,4-b]pyridin-5-yl)piperidin-4-yl)-1-methyl-3-(1-methyl-2-oxo-5-(trifluoromethyl)-1,2-dihydropyridin-3-yl)urea], 0.01 to 0.05 µM; under `CN(C(=O)Nc1cc(C(F)(F)F)cn(C)c1=O)C1CCN(c2cnc3[nH]n(C4CCOCC4)c(=O)c3c2)CC1` [Example I-112, 1-methyl-3-(1-methyl-2-oxo-5-(trifluoromethyl)-1,2-dihydropyridin-3-yl)-1-(1-(3-oxo-2-(tetrahydro-2H-pyran-4-yl)-2,3-dihydro-1H-pyrazolo[3,4-b]pyridin-5-yl)piperidin-4-yl)urea], 0.01 to 0.05 µM.
Under `CN(C(=O)Nc1cc(C(C)(C)C)n([C@H]2CCOC2)n1)C1CCN(c2cnc3[nH]ncc3c2)CC1` [Example I-174, (S)-1-(1-(1H-pyrazolo[3,4-b]pyridin-5-yl)piperidin-4-yl)-3-(5-(tert-butyl)-1-(tetrahydrofuran-3-yl)-1H-pyrazol-3-yl)-1-methylurea] stands under 0.01 µM; under `CN(C(=O)Nc1cc(C(F)(F)F)ccn1)[C@@H]1CCN(c2cnc3[nH]ncc3c2)C[C@H]1F` [Example I-175, 1-((3R,4R)-3-fluoro-1-(1H-pyrazolo[3,4-b]pyridin-5-yl)piperidin-4-yl)-1-methyl-3-(4-(trifluoromethyl)pyridin-2-yl)urea], under 0.01 µM.
Consider `Cc1cc(NC(=O)C2(C3CCN(c4cnccn4)CC3)CC2)cc(C(F)(F)F)c1` [Example I-4, N-(3-methyl-5-(trifluoromethyl)phenyl)-1-(1-(pyrazin-2-yl)piperidin-4-yl)cyclopropane-1-carboxamide], for which the Kd lay in the range of 0.05 to 1 µM.
For the molecule `COc1c[nH]c2ncc(N3CCC(N(C)C(=O)Nc4cc(C(F)(F)F)cn(C)c4=O)CC3)cc12` [Example I-94, 1-(1-(3-methoxy-1H-pyrrolo[2,3-b]pyridin-5-yl)piperidin-4-yl)-1-methyl-3-(1-methyl-2-oxo-5-(trifluoromethyl)-1,2-dihydropyridin-3-yl)urea], the Kd was under 0.01 µM.
To `CN(C(=O)Nc1cc(C(F)(F)F)cn(C)c1=O)C12CC(c3cnc4[nH]ncc4c3)(C1)C2` [Example I-116, 1-(3-(1H-pyrazolo[3,4-b]pyridin-5-yl)bicyclo[1.1.1]pentan-1-yl)-1-methyl-3-(1-methyl-2-oxo-5-(trifluoromethyl)-1,2-dihydropyridin-3-yl)urea] belongs under 0.01 µM; to `Cn1cc(C(F)(F)F)cc(NC(=O)N2CCCC23CCN(c2cnc4[nH]cc(F)c4n2)CC3)c1=O` [Example I-52, 8-(7-fluoro-5H-pyrrolo[2,3-b]pyrazin-2-yl)-N-(1-methyl-2-oxo-5-(trifluoromethyl)-1,2-dihydropyridin-3-yl)-1,8-diazaspiro[4.5]decane-1-carboxamide], 0.05 to 1 µM; to `CNc1n[nH]c2ncc(N3CC[C@@H](N(C)C(=O)Nc4cc(C(F)(F)F)cn(C)c4=O)C(F)(F)C3)cc12` [Example I-125-a, (R)-1-(3,3-difluoro-1-(3-(methylamino)-1H-pyrazolo[3,4-b]pyridin-5-yl)piperidin-4-yl)-1-methyl-3-(1-methyl-2-oxo-5-(trifluoromethyl)-1,2-dihydropyridin-3-yl)urea], under 0.01 µM.
